US20240293322A1, “SUSTAINED RELEASE FORMULATIONS COMPRISING A SELECTIVE ANDROGEN RECEPTOR MODULATOR” (University of Iowa Research Foundation, priority 2021, published 2024)
“Also recorded” adds a separate entry of the source.

How the values were obtained:
[1] = tested on: acidic saline muscle pain model; assay: Acidic saline muscle pain (fibromyalgia) model, muscle withdrawal threshold (MWT); assay type: in vivo, C57BL/6J mice
Description: A SARM was tested its ability to alleviate pain using a model of fibromyalgia (Sluka et al., 2001). The model is induced by repeated injections of acidic saline into the gastrocnemius muscle, 5 days apart. After the second injection animals develop widespread pain behavior, termed hyperalgesia, that resolves in 4 weeks. Pain-behaviors are tested by using a device to apply deep pressure to the gastrocnemius muscle; withdrawal from this pressure is considered a pain-response.
Pain was induced using the model after which daily administration of SARMs or a vehicle was performed for 4 weeks. Withdrawal thresholds of the muscle were tested before and after induction of the model, and weekly after administration of the SARM. A decrease in withdrawal threshold is interpreted as increased pain sensitivity or hyperalgesia. […] Daily administration is clinically cumbersome and results in lower adherence to the treatment and so a long acting SARM containing microparticle formulation was developed to treat pain, e.g., chronic pain.
(§1) A decrease in MWT was interpreted as muscle hyperalgesia.
The SARM, (s)-3-(4-cyanophenoxy)-n-(4-cyano-3-(trifluoromethyl)phenyl)-2-hydroxy-2-methylpropanamide (Achemblock, San Francisco, CA, USA), was used in the following experiments. To test for the analgesic effects of SARM the acidic saline muscle pain model was induced and the presence of hyperalgesia 24 hours after model induction was confirmed. Animals then received daily subcutaneous injections of either SARM or vehicle for the next 4 weeks. For SARM administration, the drug was dissolved in dimethyl sulfoxide (DMSO; Fisher Scientific, Waltham, MA, USA) at a concentration of 50 mg/ml and then diluted in polyethylene glycol 300 (PEG300; Med Lab Supply, Pompano Beach, FL, USA) until a final solution of 10 mg/ml in 80:20 PEG300:DMSO was achieved. Animals were anesthetized with 2-4% isoflurane and SARM (25 mg/kg) or vehicle were delivered subcutaneously. This dose was chosen based on prior literature which found greatest effect at this dose (Gao et al., 2004). […]

[2] = tested on: acidic saline muscle pain model; assay: Acidic saline muscle pain model, paw allodynia by von Frey monofilament; assay type: in vivo, C57BL/6J mice; conditions: daily SARM 25 mg/kg s.c. for 4 weeks vs vehicle; ipsilateral and contralateral paw
From the text: as §1

C57BL/6J mice = assay: Rewarding behavior, condition place preference testing; assay type: in vivo; conditions: SARM 25 mg/kg s.c. daily for 5 days
From the text: To test if SARM produced rewarding behavior condition place preference testing was employed using a 9-day testing paradigm. The boxes used for testing were 27.5″ by 8.25″ divided into two 10.75″ by 8.25″ pairing chambers and a 4.75″ by 8.25″ middle chamber. The pairing chambers had different colored walls (solid black vs black and white stripe) and floor textures (smooth vs ridged). The middle chamber had solid black walls with smooth floors and was illuminated. Acclimation and baseline testing occurred over the first 3 days. Animals were placed in boxes with access to all 3 chambers for 15 minutes. On the third day, time spent in each box was recorded. Drug pairing then occurred for 5 days on days 4 through 8. Each day, animals were injected subcutaneously with SARM vehicle (80:20; PEG300:DMSO) and placed in a pairing chamber for 60 minutes. Animals were then returned to their home cages. Four hours later animals were subcutaneously injected with SARM (25 mg/kg) and were confined to the opposite pairing chamber for 60 minutes. Chamber pairings were counterbalanced amongst animals. Following pairing, on day 9, animals were placed in boxes with access to all 3 chambers for 15 minutes with time spent in each box recorded. In order to determine if rewarding behavior was present, the amount of time spent in SARM paired chambers was compared between baseline and post drug pairing.

With `C[C@](O)(COc1ccc(C#N)cc1)C(=O)Nc1ccc(C#N)c(C(F)(F)F)c1` [SARM, (s)-3-(4-cyanophenoxy)-n-(4-cyano-3-(trifluoromethyl)phenyl)-2-hydroxy-2-methylpropanamide] the “effect on hyperalgesia in male versus female mice” value ([1]; Example 1) was “worked equally in male and female mice”, the “withdrawal thresholds of the gastrocnemius muscle (pain thresholds, muscle hyperalgesia)” value ([1]; Example 1: daily administration of free SARM for 4 weeks vs vehicle, left and right muscle) was “higher pain thresholds than those receiving vehicle treatment; also recorded: reversed muscle hyperalgesia” and the “muscle hyperalgesia measured via muscle withdrawal threshold (MWT)” value ([1]; daily SARM 25 mg/kg s.c. for 4 weeks vs vehicle, ipsilateral and contralateral limb) was “alleviated decreased MWT bilaterally in both sexes; also recorded: significant reversal in muscle hyperalgesia; also recorded: reversed muscle hyperalgesia”. For the same compound, the “paw allodynia / paw hypersensitivity (von Frey number of responses)” value [2] was “no effect on paw allodynia; also recorded: unable to alleviate paw hypersensitivity”, the “preference for SARM paired chamber (reward like behavior)” value (C57BL/6J mice; baseline vs post drug pairing) was “did not show an increased preference for the SARM paired chamber; also recorded: no preference for the SARM paired chamber” and the “time spent in SARM paired chamber, post drug pairing” value (C57BL/6J mice; baseline 380.3±51.0 sec, mean±SEM) was 385.7 ± 37.1 s.
